Our source for the EC50 values is patent US9802927B2, “Oxadiazine compounds and methods of use thereof” (Denali Therapeutics, Inc., priority 2015, dated 2017).

Bounds are passed on as bounds.

The experiment has as its system Aβ42. Put plainly: In vitro cell screening assay in H4 cells expressing human APP751: Aβ42 by sandwich ELISA. Particulars: compounds 0.003-10 μM, incubated overnight (16-18 h), sandwich ELISA of supernatant. The format is cell-based. The procedure, abridged: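 H4 neuroglioma cells stably expressing wild-type human APP751, switched to Pro293 medium and treated with compounds (0.003-10 μM, 0.33% DMSO) for 16-18 h at 37 °C. Supernatant Aβ42 quantified by sandwich ELISA (C-terminal capture, 4G8-HRP detection, A450); EC50 by sigmoidal fit normalized to DMSO and DAPT controls.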
(In general: In an ELISA, binding on a coated surface is turned into a signal by an enzyme label.)
In the case of `COc1nc(C2=NOCC(c3cn(C)c4ncc(Cl)cc34)N2)ccc1-n1cnc(C)c1` (single isomer, unassigned; (+)) [Example 264B, (+)-5-(5-chloro-1-methyl-1H-pyrrolo[2,3-b]pyridin-3-yl)-3-(6-methoxy-5-(4-methyl-1H-imidazol-1-yl)pyridin-2-yl)-5,6-dihydro-4H-1,2,4-oxadiazine], the EC50 (in general, the midpoint of the concentration-response curve) is 9.5 nM. Under `COc1nc(C2=NOCC(c3cn(C)c4ncc(C5CC5)cc34)N2)ccc1-n1cnc(C)c1` (single isomer, unassigned; (+)) [Example 266B, (+)-5-(5-cyclopropyl-1-methyl-1H-pyrrolo[2,3-b]pyridin-3-yl)-3-(6-methoxy-5-(4-methyl-1H-imidazol-1-yl)pyridin-2-yl)-5,6-dihydro-4H-1,2,4-oxadiazine] stands 15.5 nM; under `COc1nc(C2=NOCC(c3cc(F)c(Cl)c(F)c3)N2)ccc1-n1cnc(C)c1` (single isomer, unassigned; (+)) [Example 267B, (+)-5-(4-chloro-3,5-difluorophenyl)-3-(6-methoxy-5-(4-methyl-1H-imidazol-1-yl)pyridin-2-yl)-5,6-dihydro-4H-1,2,4-oxadiazine], 24.9 nM.

As to `COc1nc(C2=NOCC(c3ccc(C(C)(C)O)cc3)N2)ccc1-n1cnc(C)c1` (single isomer, unassigned; (+)) [Example 268B, (+)-2-(4-(3-(6-methoxy-5-(4-methyl-1H-imidazol-1-yl)pyridin-2-yl)-5,6-dihydro-4H-1,2,4-oxadiazin-5-yl)phenyl)propan-2-ol], a half-maximal effect (EC50) was put at 270 nM. The same measure for `COc1nc(C2=NOCC(c3cnc4ccc(Cl)cn34)N2)ccc1-n1cnc(C)c1` (single isomer, unassigned; (+)) [Example 269B, (+)-5-(6-chloroimidazo[1,2-a]pyridin-3-yl)-3-(6-methoxy-5-(4-methyl-1H-imidazol-1-yl)pyridin-2-yl)-5,6-dihydro-4H-1,2,4-oxadiazine]: 240 nM. Under `COc1nc(C2=NOCC(c3ccc(Cl)c(C(F)F)c3)N2)ccc1-n1cnc(C)c1` (single isomer, unassigned; (+)) [Example 270B, (+)-5-(4-chloro-3-(difluoromethyl)phenyl)-3-(6-methoxy-5-(4-methyl-1H-imidazol-1-yl)pyridin-2-yl)-5,6-dihydro-4H-1,2,4-oxadiazine] stands 21.4 nM.

With `COc1nc(C2=NOCC(c3oc4ccccc4c3C)N2)ccc1-n1cnc(C)c1` (single isomer, unassigned; (-)) [Example 16A, (−)-3-(6-methoxy-5-(4-methyl-1H-imidazol-1-yl)pyridin-2-yl)-5-(3-methylbenzofuran-2-yl)-5,6-dihydro-4H-1,2,4-oxadiazine], the response was half-maximal at 508 nM (EC50). Under `COc1nc(C2=NOCC(c3cc4ccccc4o3)N2)ccc1-n1cnc(C)n1` (single isomer, unassigned; (-)) [Example 31A, (−)-5-(Benzofuran-2-yl)-3-(6-methoxy-5-(3-methyl-1H-1,2,4-triazol-1-yl)pyridin-2-yl)-5,6-dihydro-4H-1,2,4-oxadiazine] stands over 3000 nM. For the compound `COc1nc(C2=NOCC(c3ccc(Cl)c(Cl)c3)N2)ccc1-n1cnc(C)c1` (single isomer, unassigned; (-)) [Example 49A, (−)-5-(3,4-dichlorophenyl)-3-(6-methoxy-5-(4-methyl-1H-imidazol-1-yl)pyridin-2-yl)-5,6-dihydro-4H-1,2,4-oxadiazine], the EC50 was over 3000 nM.

`COc1nc(C2=NOCC(c3cc4ccc(F)cc4o3)N2)ccc1-n1cnc(C)c1` (single isomer, unassigned; (-)) [Example 52A, (−)-5-(6-fluorobenzofuran-2-yl)-3-(6-methoxy-5-(4-methyl-1H-imidazol-1-yl)pyridin-2-yl)-5,6-dihydro-4H-1,2,4-oxadiazine] gave an EC50 of 667 nM.

Regarding `COc1ccc(C2CON=C(c3ccc(-n4cnc(C)c4)c(OC)n3)N2)cc1` (single isomer, unassigned; (-)) [Example 54A, (−)-3-(6-methoxy-5-(4-methyl-1H-imidazol-1-yl)pyridin-2-yl)-5-(4-methoxyphenyl)-5,6-dihydro-4H-1,2,4-oxadiazine], the EC50 was over 3000 nM. Under `COc1nc(C2=NOCC(c3cc4cc(Cl)ccc4o3)N2)ccc1-n1cnc(C)c1` (single isomer, unassigned; (-)) [Example 57A, (−)-5-(5-chlorobenzofuran-2-yl)-3-(6-methoxy-5-(4-methyl-1H-imidazol-1-yl)pyridin-2-yl)-5,6-dihydro-4H-1,2,4-oxadiazine] stands 2280 nM. The same measure for `COc1nc(C2=NOCC(c3ccc(C(F)(F)F)cc3)N2)ccc1-n1cnc(C)c1` (single isomer, unassigned; (-)) [Example 59A, (−)-3-(6-methoxy-5-(4-methyl-1H-imidazol-1-yl)pyridin-2-yl)-5-(4-(trifluoromethyl)phenyl)-5,6-dihydro-4H-1,2,4-oxadiazine]: over 3000 nM; for `COc1nc(C2=NOCC(C3CCCCC3)N2)ccc1-n1cnc(C)c1` (single isomer, unassigned; (-)) [Example 61A, (−)-5-cyclohexyl-3-(6-methoxy-5-(4-methyl-1H-imidazol-1-yl)pyridin-2-yl)-5,6-dihydro-4H-1,2,4-oxadiazine]: 775 nM; for `COc1nc(C2=NOCC(c3cc4cccc(Cl)c4o3)N2)ccc1-n1cnc(C)c1` (single isomer, unassigned; (-)) [Example 64A, (−)-5-(7-chlorobenzofuran-2-yl)-3-(6-methoxy-5-(4-methyl-1H-imidazol-1-yl)pyridin-2-yl)-5,6-dihydro-4H-1,2,4-oxadiazine]: 759 nM. The same measure for `COc1nc(C2=NOCC(c3sc4ccccc4c3C)N2)ccc1-n1cnc(C)c1` (single isomer, unassigned; (-)) [Example 66A, (−)-3-(6-methoxy-5-(4-methyl-1H-imidazol-1-yl)pyridin-2-yl)-5-(3-methylbenzo [b]thiophen-2-yl)-5,6-dihydro-4H-1,2,4-oxadiazine]: 651 nM; for `COc1nc(C2=NOCC(c3csc4ccccc34)N2)ccc1-n1cnc(C)c1` (single isomer, unassigned; (-)) [Example 68A, (−)-5-(benzo [b]thiophen-3-yl)-3-(6-methoxy-5-(4-methyl-1H-imidazol-1-yl)pyridin-2-yl)-5,6-dihydro-4H-1,2,4-oxadiazine]: 1090 nM. Compound `COc1nc(C2=NOCC(c3ccc(OC(F)(F)F)cc3)N2)ccc1-n1cnc(C)c1` (single isomer, unassigned; (-)) [Example 70A, (−)-3-(6-methoxy-5-(4-methyl-1H-imidazol-1-yl)pyridin-2-yl)-5-(4-(trifluoromethoxy)phenyl)-5,6-dihydro-4H-1,2,4-oxadiazine] had an EC50 of over 3000 nM.

For `CCn1cc(C2CON=C(c3ccc(-n4cnc(C)c4)c(OC)n3)N2)c2cc(Cl)c(F)cc21` (single isomer, unassigned; (-)) [Example 73A, (−)-5-(5-chloro-1-ethyl-6-fluoro-1H-indol-3-yl)-3-(6-methoxy-5-(4-methyl-1H-imidazol-1-yl)pyridin-2-yl)-5,6-dihydro-4H-1,2,4-oxadiazine], the concentration for a half-maximal effect (EC50) was found to be 54.9 nM. The same measure for `COc1nc(C2=NOCC(c3ccc(F)c(F)c3)N2)ccc1-n1cnc(C)c1` (single isomer, unassigned; (-)) [Example 75A, (−)-5-(3,4-difluorophenyl)-3-(6-methoxy-5-(4-methyl-1H-imidazol-1-yl)pyridin-2-yl)-5,6-dihydro-4H-1,2,4-oxadiazine]: over 3000 nM; for `COc1nc(C2=NOCC(c3cc4ccc(Cl)cc4o3)N2)ccc1-n1cnc(C)c1` (single isomer, unassigned; (-)) [Example 78A, (−)-5-(6-chlorobenzofuran-2-yl)-3-(6-methoxy-5-(4-methyl-1H-imidazol-1-yl)pyridin-2-yl)-5,6-dihydro-4H-1,2,4-oxadiazine]: 1280 nM. `COc1nc(C2=NOCC(c3cc(F)cc(F)c3)N2)ccc1-n1cnc(C)c1` (single isomer, unassigned; (-)) [Example 81A, (−)-5-(3,5-difluorophenyl)-3-(6-methoxy-5-(4-methyl-1H-imidazol-1-yl)pyridin-2-yl)-5,6-dihydro-4H-1,2,4-oxadiazine] registered an EC50 of over 3000 nM. Under `COc1nc(C2=NOCC(c3cc4cc(F)ccc4o3)N2)ccc1-n1cnc(C)c1` (single isomer, unassigned; (-)) [Example 84A, (−)-5-(5-fluorobenzofuran-2-yl)-3-(6-methoxy-5-(4-methyl-1H-imidazol-1-yl)pyridin-2-yl)-5,6-dihydro-4H-1,2,4-oxadiazine] stands 944 nM; under `COc1nc(C2=NOCC(c3ccc(Cl)c(C)c3)N2)ccc1-n1cnc(C)c1` (single isomer, unassigned; (-)) [Example 86A, (−)-5-(4-chloro-3-methylphenyl)-3-(6-methoxy-5-(4-methyl-1H-imidazol-1-yl)pyridin-2-yl)-5,6-dihydro-4H-1,2,4-oxadiazine], 1550 nM. The same measure for `COc1nc(C2=NOCC(c3cc4cccc(F)c4o3)N2)ccc1-n1cnc(C)c1` (single isomer, unassigned; (-)) [Example 89A, (−)-5-(7-fluorobenzofuran-2-yl)-3-(6-methoxy-5-(4-methyl-1H-imidazol-1-yl)pyridin-2-yl)-5,6-dihydro-4H-1,2,4-oxadiazine]: 2340 nM; for `COc1nc(C2=NOCC(c3cc(F)c(F)c(F)c3)N2)ccc1-n1cnc(C)c1` (single isomer, unassigned; (-)) [Example 91A, (−)-3-(6-methoxy-5-(4-methyl-1H-imidazol-1-yl)pyridin-2-yl)-5-(3,4,5-trifluorophenyl)-5,6-dihydro-4H-1,2,4-oxadiazine]: over 3000 nM; for `COc1nc(C2=NOCC(c3ccc(OC(F)F)cc3)N2)ccc1-n1cnc(C)c1` (single isomer, unassigned; (-)) [Example 93A, (−)-5-(4-(difluoromethoxy)phenyl)-3-(6-methoxy-5-(4-methyl-1H-imidazol-1-yl)pyridin-2-yl)-5,6-dihydro-4H-1,2,4-oxadiazine]: over 3000 nM.
